According to ChEMBL document CHEMBL1201861, “Genomics of Drug Sensitity in Cancer screening data, Wellcome Trust Sanger Institute”:

Assays:
Assay in all cases: cells
DJM-1 = assay type: functional, cell-based, Homo sapiens; conditions: Homo sapiens, DJM-1;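 note: growth inhibition of human DJM-1 cells, read out by a cell viability assay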
Description: SANGER: Inhibition of human DJM-1 cell growth in a cell viability assay.

DMS-79 = assay type: functional, cell-based; conditions: Homo sapiens;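 note: growth inhibition measured with a cell viability assay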
Description: SANGER: Inhibition of human DMS-79 cell growth in a cell viability assay.

OCUB-M = assay type: functional, cell-based, Homo sapiens; conditions: Homo sapiens, OCUB-M;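 note: growth inhibition of the cancer cell line, read out through a cell viability assay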
Description: SANGER: Inhibition of human OCUB-M cell growth in a cell viability assay.

SK-N-DZ = assay type: functional, cell-based, Homo sapiens; conditions: Homo sapiens, SK-N-DZ;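 note: growth inhibition of the cancer cell line, read out through a viability assay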
Description: SANGER: Inhibition of human SK-N-DZ cell growth in a cell viability assay.

A3-KAW = assay type: functional, cell-based; conditions: Homo sapiens;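 note: growth inhibition of human A3-KAW cells, read out with a cell viability assay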
Description: SANGER: Inhibition of human A3-KAW cell growth in a cell viability assay.

L-363 = assay type: functional, cell-based; conditions: Homo sapiens
Description: SANGER: Inhibition of human L-363 cell growth in a cell viability assay.

NCI-H2126 = assay type: functional, cell-based, Homo sapiens; conditions: Homo sapiens, NCI-H2126;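 note: growth inhibition of the cancer cell line, determined with a cell viability readout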
Description: SANGER: Inhibition of human NCI-H2126 cell growth in a cell viability assay.

COLO-684 = assay type: functional, cell-based; conditions: Homo sapiens
Description: SANGER: Inhibition of human COLO-684 cell growth in a cell viability assay.

K562 = assay type: functional, cell-based; conditions: Homo sapiens
Description: SANGER: Inhibition of human K-562 cell growth in a cell viability assay.

EM-2 = assay type: functional, cell-based; conditions: Homo sapiens;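 note: growth inhibition of EM-2 cells, read out with a cell viability assay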
Description: SANGER: Inhibition of human EM-2 cell growth in a cell viability assay.

D-502MG = assay type: functional, cell-based, Homo sapiens; conditions: Homo sapiens, D-502MG
Description: SANGER: Inhibition of human D-502MG cell growth in a cell viability assay.

BB30-HNC = assay type: functional, cell-based, Homo sapiens; conditions: Homo sapiens, BB30-HNC;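 note: growth inhibition of the cultured cell line, read out by a cell viability assay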
Description: SANGER: Inhibition of human BB30-HNC cell growth in a cell viability assay.

SNU1 = assay type: functional, cell-based; conditions: Homo sapiens;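 note: growth inhibition of human NCI-SNU-1 cells, measured with a cell viability assay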
Description: SANGER: Inhibition of human NCI-SNU-1 cell growth in a cell viability assay.

Ramos-2G6-4C10 = assay type: functional, cell-based; conditions: Homo sapiens;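 note: growth inhibition of the cell line, measured by a cell viability read-out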
Description: SANGER: Inhibition of human Ramos-2G6-4C10 cell growth in a cell viability assay.

MV4-11 = assay type: functional, cell-based, MV-4-11; conditions: Homo sapiens;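 note: cell viability readout measuring growth inhibition of human MV-4-11 cells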
Description: SANGER: Inhibition of human MV-4-11 cell growth in a cell viability assay.

OCI-AML2 = assay type: functional, cell-based; conditions: Homo sapiens;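 note: growth inhibition of OCI-AML2 cells, read out with a cell viability assay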
Description: SANGER: Inhibition of human OCI-AML2 cell growth in a cell viability assay.

J-RT3-T3-5 = assay type: functional, cell-based; conditions: Homo sapiens;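 note: cell viability assay measuring growth inhibition of human J-RT3-T3-5 cells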
Description: SANGER: Inhibition of human J-RT3-T3-5 cell growth in a cell viability assay.

SW872 = assay type: functional, cell-based, Homo sapiens; conditions: Homo sapiens, SW872;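 note: growth inhibition of SW872 cells, read out by a viability assay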
Description: SANGER: Inhibition of human SW872 cell growth in a cell viability assay.

NB17 = assay type: functional, cell-based; conditions: Homo sapiens;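 note: growth inhibition of NB17 cells, read out with a cell viability assay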
Description: SANGER: Inhibition of human NB17 cell growth in a cell viability assay.

LXF-289 cell line = assay type: functional, cell-based, Homo sapiens; conditions: Homo sapiens, LXF-289
Description: SANGER: Inhibition of human LXF-289 cell growth in a cell viability assay.

MMAC-SF = assay type: functional, cell-based, Homo sapiens; conditions: Homo sapiens, MMAC-SF;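 note: growth inhibition of human MMAC-SF cells, read out with a cell viability assay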
Description: SANGER: Inhibition of human MMAC-SF cell growth in a cell viability assay.

DSH1 = assay type: functional, cell-based, Homo sapiens; conditions: Homo sapiens, DSH1;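 note: growth inhibition of human DSH1 cells, measured with a cell viability readout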
Description: SANGER: Inhibition of human DSH1 cell growth in a cell viability assay.

KNS-42 = assay type: functional, cell-based, Homo sapiens; conditions: Homo sapiens, KNS-42;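 note: growth inhibition of KNS-42 cells, read out with a cell viability assay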
Description: SANGER: Inhibition of human KNS-42 cell growth in a cell viability assay.

TGBC24TKB = assay type: functional, cell-based, Homo sapiens; conditions: Homo sapiens, TGBC24TKB;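 note: growth inhibition of human TGBC24TKB cells, read out with a cell viability assay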
Description: SANGER: Inhibition of human TGBC24TKB cell growth in a cell viability assay.

SMILES | IC50 (DJM-1) | IC50 (DMS-79) | IC50 (OCUB-M) | IC50 (SK-N-DZ) | IC50 (A3-KAW) | IC50 (L-363) | IC50 (NCI-H2126) | IC50 (COLO-684) | IC50 (K562) | IC50 (EM-2) | IC50 (D-502MG) | IC50 (SNU1) | IC50 (Ramos-2G6-4C10) | IC50 (MV4-11) | IC50 (OCI-AML2) | IC50 (J-RT3-T3-5) | IC50 (SW872) | IC50 (NB17) | IC50 (LXF-289 cell line) | IC50 (MMAC-SF) | also measured
C=C1C(=O)O[C@@H]2C3O[C@]3(C)CC/C=C(\C)CC[C@@H]12 (stereo partly drawn) | > 5000 nM | > 5000 nM | > 5000 nM | 4650 nM | 2290 nM | > 5000 nM | > 5000 nM | > 5000 nM | > 5000 nM | > 5000 nM | > 5000 nM | > 5000 nM | > 5000 nM | > 5000 nM | > 5000 nM | > 5000 nM | > 5000 nM | 1720 nM | > 5000 nM | > 5000 nM | IC50 (BB30-HNC): > 5000 nM; IC50 (DSH1): > 5000 nM; IC50 (KNS-42): > 5000 nM
CC1=C2C[C@H]3[C@@H](CC=C4C[C@@H](O)CC[C@@]43C)[C@@H]2CC[C@]12O[C@@H]1C[C@H](C)CN[C@H]1[C@H]2C [CYCLOPAMINE] | > 16000 nM | > 16000 nM | > 16000 nM | > 16000 nM | > 16000 nM | > 16000 nM | > 16000 nM | > 16000 nM | > 16000 nM | > 16000 nM | > 16000 nM | > 16000 nM | > 16000 nM | > 16000 nM | > 16000 nM | > 16000 nM | > 16000 nM | > 16000 nM | > 16000 nM | > 16000 nM | IC50 (BB30-HNC): > 16000 nM; IC50 (DSH1): > 16000 nM; IC50 (KNS-42): > 16000 nM
CS(=O)(=O)CCNCc1ccc(-c2ccc3ncnc(Nc4ccc(OCc5cccc(F)c5)c(Cl)c4)c3c2)o1 [LAPATINIB] | > 2000 nM | > 2000 nM | 57.4 nM | > 2000 nM | > 2000 nM | > 2000 nM | > 2000 nM | > 2000 nM | > 2000 nM | > 2000 nM | > 2000 nM | > 2000 nM | > 2000 nM | > 2000 nM | > 2000 nM | > 2000 nM | > 2000 nM | > 2000 nM | > 2000 nM | > 2000 nM | IC50 (BB30-HNC): 247 nM; IC50 (DSH1): 94 nM; IC50 (KNS-42): > 2000 nM
CCc1nc(N)nc(N)c1-c1ccc(Cl)cc1 [PYRIMETHAMINE] | > 20000 nM | > 20000 nM | > 20000 nM | > 20000 nM | 9440 nM | > 20000 nM | > 20000 nM | 6760 nM | > 20000 nM | 12400 nM | > 20000 nM | 14700 nM | 5640 nM | 11400 nM | 8500 nM | 2220 nM | > 20000 nM | > 20000 nM | > 20000 nM | > 20000 nM | IC50 (BB30-HNC): > 20000 nM; IC50 (DSH1): 4980 nM; IC50 (KNS-42): > 20000 nM
O=C(/C=C/c1ccccc1)NC(NC(=S)Nc1cccc2cccnc12)C(Cl)(Cl)Cl (stereo not drawn) [SALUBRINAL] | > 16000 nM | > 16000 nM | > 16000 nM | > 16000 nM | 8430 nM | 13600 nM | > 16000 nM | > 16000 nM | 11000 nM | > 16000 nM | > 16000 nM | > 16000 nM | 9900 nM | > 16000 nM | 15900 nM | 14700 nM | > 16000 nM | > 16000 nM | 11200 nM | > 16000 nM | IC50 (BB30-HNC): > 16000 nM; IC50 (DSH1): > 16000 nM; IC50 (KNS-42): > 16000 nM
CN1CCN(CCOc2cc(OC3CCOCC3)c3c(Nc4c(Cl)ccc5c4OCO5)ncnc3c2)CC1 [SARACATINIB] | > 2000 nM | > 2000 nM | > 2000 nM | 1850 nM | > 2000 nM | > 2000 nM | > 2000 nM | > 2000 nM | 450 nM | 265 nM | > 2000 nM | > 2000 nM | > 2000 nM | > 2000 nM | > 2000 nM | > 2000 nM | > 2000 nM | > 2000 nM | > 2000 nM | > 2000 nM | IC50 (TGBC24TKB): > 2000 nM; IC50 (BB30-HNC): 862 nM; IC50 (DSH1): > 2000 nM; IC50 (KNS-42): > 2000 nM
CO[C@H]1C[C@@H]2CC[C@@H](C)[C@@](O)(O2)C(=O)C(=O)N2CCCC[C@H]2C(=O)O[C@H]([C@H](C)C[C@@H]2CC[C@@H](O)[C@H](OC)C2)CC(=O)[C@H](C)/C=C(\C)[C@@H](O)[C@@H](OC)C(=O)[C@H](C)C[C@H](C)/C=C/C=C/C=C/1C [SIROLIMUS] | > 100 nM | > 100 nM | < 0.391 nM | > 100 nM | 2.99 nM | 44.7 nM | > 100 nM | 39.8 nM | > 100 nM | 38.5 nM | > 100 nM | > 100 nM | 1.46 nM | 83.7 nM | > 100 nM | 6.46 nM | 0.846 nM | > 100 nM | > 100 nM | > 100 nM | IC50 (TGBC24TKB): 5.51 nM; IC50 (BB30-HNC): > 100 nM; IC50 (DSH1): > 100 nM; IC50 (KNS-42): > 100 nM
CNC(=O)c1cc(Oc2ccc(NC(=O)Nc3ccc(Cl)c(C(F)(F)F)c3)cc2)ccn1 [SORAFENIB] | > 4000 nM | > 4000 nM | > 4000 nM | > 4000 nM | 1880 nM | > 4000 nM | > 4000 nM | > 4000 nM | > 4000 nM | 1360 nM | > 4000 nM | 2320 nM | > 4000 nM | < 15.6 nM | > 4000 nM | > 4000 nM | > 4000 nM | > 4000 nM | > 4000 nM | > 4000 nM | IC50 (DSH1): > 4000 nM; IC50 (KNS-42): > 4000 nM
CCC(=O)N1CCN(c2ccc(-n3c(=O)ccc4cnc5ccc(-c6cnc7ccccc7c6)cc5c43)cc2C(F)(F)F)CC1 [TORIN1] | > 1200 nM | > 1200 nM | 1.94 nM | 147 nM | 62.2 nM | 2.84 nM | 114 nM | 45.6 nM | 91.2 nM | 115 nM | > 1200 nM | > 1200 nM | 27.5 nM | 70 nM | 28.7 nM | 91.5 nM | 22.5 nM | 117 nM | 28.7 nM | 26.3 nM | IC50 (TGBC24TKB): 58 nM; IC50 (BB30-HNC): 57.3 nM; IC50 (DSH1): 71.7 nM; IC50 (KNS-42): 82 nM
Cc1cc(Nc2cc(N3CCN(C)CC3)nc(Sc3ccc(NC(=O)C4CC4)cc3)n2)n[nH]1 [TOZASERTIB] | > 2000 nM | > 2000 nM | 170 nM | 962 nM | > 2000 nM | > 2000 nM | > 2000 nM | > 2000 nM | 435 nM | 266 nM | > 2000 nM | > 2000 nM | > 2000 nM | 77.8 nM | 644 nM | > 2000 nM | > 2000 nM | > 2000 nM | 404 nM | > 2000 nM | IC50 (TGBC24TKB): 864 nM; IC50 (BB30-HNC): 226 nM; IC50 (DSH1): > 2000 nM; IC50 (KNS-42): > 2000 nM
